Source: patent US20050164370A1 (priority 2003, published 2005)

How the values were obtained:
Format in all cases: cell-based, yeast
[1] = tested on: transformed cells TM182-CRE1-ADHIPT4; assay: Liquid culture of transformed cell TM182-CRE1-ADHIPT4 with examinee substance, absorbance; details: Table 4, TM182-CRE1-ADH-IPT4, 1 μL of 200 ppm DMSO solution per 100 μL, DOHLU+Glu, 30° C. for 24 hours
Method: (§1) The thus obtained culture solutions were diluted with DOHLU+Glu culture medium so that OD600 became 0.200, and then the diluted ones were further diluted with DOHLU+Glu culture medium at a dilution rate of 1/200 to obtain diluted pre-cultured solutions.
(§2) A 96-well assay plate was prepared by filling each well with 1 μL of a DMSO solution of an examinee substance (Abscisic acid or 6-Benzyl aminopurine). In this regard, it is to be noted that the DMSO solution of a examinee substance was prepared so that the concentration thereof became 200 ppm. Simultaneously, an assay plate was prepared by filling each well with 1 μL of DMSO as a blank section.
(§3) Each of the diluted pre-cultured solutions was added in a volume of 100 μL per each well of both of the assay plates, and was cultured at 30° C. for 24 hours. After incubation, the turbidity of each well was measured using a plate reader. The absorbance (OD600) of each of the culture solutions of the transformed cells containing the examinee substance was shown in Table 4. […] Further, the growth speeds of the transformed cells TM182-CRE1-ADHIPT4, TM182-AHK2-CYC1IPT4, TM182-AHK2-CYC1IPT5 and TM182-AHK2-ADHIPT5 in the culture medium to which 6-Benzyl aminopurine was added were faster than those in the culture medium to which only DMSO was added.

[2] = tested on: transformed cells TM182-CRE1-CYC1IPT4; assay: Liquid culture of transformed cell TM182-CRE1-CYC1IPT4 with examinee substance, absorbance; details: Table 3, TM182-CRE1-CYC1-IPT4, 1 μL of 200 ppm DMSO solution per 100 μL, DOHLU+Glu, 30° C. for 24 hours
Method: as §1, §2
as §3, with “3.” for “4.”, “TM182-CRE1-CYC1IPT4” for “TM182-CRE1-ADHIPT4, TM182-AHK2-CYC1IPT4, TM182-AHK2-CYC1IPT5”, “TM182-CRE1-ADHIPT5” for “TM182-AHK2-ADHIPT5”

[3] = target: T1, cytokinin receptor AHK2 (Arabidopsis thaliana, UniProt Q9C5U2); assay: Agonist-activity to cytokinin receptor, optical density of TM182-AHK2 liquid culture; design: expressed in transfected cells; host or cells: yeast strain TM182 carrying plasmid p415CYC-AHK2 (pHM-1 backbone, CYC1 promoter); details: TM182-AHK2, examinee substance 100 μM, DOLU+Glu, 30° C. for 24 hours
T1 sequence (Q9C5U2 1-1176): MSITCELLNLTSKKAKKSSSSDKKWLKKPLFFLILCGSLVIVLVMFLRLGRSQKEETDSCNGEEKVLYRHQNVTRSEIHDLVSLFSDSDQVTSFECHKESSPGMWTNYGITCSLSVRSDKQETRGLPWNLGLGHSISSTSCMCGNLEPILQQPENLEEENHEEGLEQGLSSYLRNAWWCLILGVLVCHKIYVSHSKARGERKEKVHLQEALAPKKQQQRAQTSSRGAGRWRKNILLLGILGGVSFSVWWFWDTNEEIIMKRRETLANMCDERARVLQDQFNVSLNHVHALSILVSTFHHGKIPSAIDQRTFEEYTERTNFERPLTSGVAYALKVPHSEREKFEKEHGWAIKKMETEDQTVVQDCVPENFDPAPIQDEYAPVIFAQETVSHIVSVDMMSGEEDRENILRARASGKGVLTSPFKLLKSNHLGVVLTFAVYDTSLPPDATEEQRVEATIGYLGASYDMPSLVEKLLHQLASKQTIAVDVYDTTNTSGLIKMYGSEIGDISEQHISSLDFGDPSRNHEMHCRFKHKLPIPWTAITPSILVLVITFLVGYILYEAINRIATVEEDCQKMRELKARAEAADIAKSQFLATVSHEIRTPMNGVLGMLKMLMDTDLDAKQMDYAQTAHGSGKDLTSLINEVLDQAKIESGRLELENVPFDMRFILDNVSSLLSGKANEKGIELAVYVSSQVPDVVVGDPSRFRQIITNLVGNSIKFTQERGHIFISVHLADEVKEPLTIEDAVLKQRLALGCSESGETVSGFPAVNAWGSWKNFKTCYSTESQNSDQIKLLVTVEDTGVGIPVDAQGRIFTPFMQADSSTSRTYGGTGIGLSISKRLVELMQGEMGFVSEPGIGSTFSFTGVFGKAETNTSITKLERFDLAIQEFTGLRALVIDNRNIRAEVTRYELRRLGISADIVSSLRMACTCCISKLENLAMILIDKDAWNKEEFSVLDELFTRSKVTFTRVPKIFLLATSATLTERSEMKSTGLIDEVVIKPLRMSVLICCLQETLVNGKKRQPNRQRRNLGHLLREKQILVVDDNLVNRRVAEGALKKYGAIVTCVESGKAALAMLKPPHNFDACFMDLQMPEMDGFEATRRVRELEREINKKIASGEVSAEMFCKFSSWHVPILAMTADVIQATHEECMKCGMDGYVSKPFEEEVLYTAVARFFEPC
Method: The transformed cells TM182-AHK2, TM182-AHK2Δ and TM182-AHK3 produced in the reference example 1 were inoculated in 200 ml of DOLU+Gal culture media and pre-cultured at 30° C. for 36 hours. The pre-cultured solutions were diluted with DOLU+Glu media as to become 0.100 as the optical density (OD600) and further the resultants were diluted with DOLU+Glu media at a dilution rate of 1/200 to obtain diluted pre-cultured solutions.
An assay plate was prepared by filling respective wells of a 96-well plate with 20 μl of solutions which were prepared by diluting DMSO solution (10 mM) of each examinee substance with DOLU+Glu medium at a dilution rate of 1/100, said solutions containing each examinee substance to be […]. […]
The diluted pre-cultured solutions were added in 200 μl each into the respective wells of both assay plates and cultured at 30° C. for 24 hours and then the optical density (OD620) of each well was measured by a plate reader. The agonist-activity of the examinee substances to the cytokinin receptor was detected by comparing the optical density measured in the testing sections to which the examinee substances were added with the optical density measured in the blank sections.

## CC1=CC(=O)CC(C)(C)[C@@]1(O)/C=C/C(C)=C\C(=O)O [Compound A, Abscisic acid]
[1]
  absorbance (OD600) of the culture solution: 0.045
[2]
  absorbance (OD600) of the culture solution: 0.102
[3]
  optical density (OD620) of the culture solution: 0.01

## c1ccc(CNc2ncnc3nc[nH]c23)cc1 [Compound B, 6-Benzyl aminopurine]
[1]
  absorbance (OD600) of the culture solution: 0.058
[2]
  absorbance (OD600) of the culture solution: 0.260
[3]
  optical density (OD620) of the culture solution: 0.45
